Experimental findings from patent US4000269A, “S-(α-substituted-arylmethylthio, -arylmethylsulfinyl, and -arylmethylsulfonyl)methyl phosphorus esters used as insecticides” (priority 1975, dated 1976) are described below.

One data set has as its system Southern corn rootworm larvae (Diabrotica undecimpunctata). Kind of data set: Southern Corn Rootworm Control (treated soil, dust on talc). Format: in vivo. To be noted: 144 h, 1 lbs./Acre, potting soil, mortality after 6 days, read-out: Percent Control of Southern Corn Rootworm Larvae. The method, then: Compounds are prepared as dusts on talc. The compounds are dissolved in acetone, and appropriate rates obtained by serial dilution. One and one-quarter milliliters of solution is pipetted onto a standard volume of dust in 1 -ounce jars, and the acetone allowed to evaporate. Twenty-five milliliters of moist soil and about 200 millet seeds are placed in the jar, capped and the contents thoroughly mixed. Ten second-instar larvae of the Southern corn rootworm (Diabrotica undecimpunctata ) are then placed in each jar. Mortality counts are made after 6 days and percent mortality determined.
As to `COP(=S)(OC)SCSC(C)(C)c1ccc(Cl)cc1` [Example 7, S-(p-Chloro-α,α-dimethylbenzylthio)methyl O,O-Dimethyl Phosphorodithioate], the mortality at 1120.85 g/ha turned out to be 100%.
Turning to `COP(=S)(OC)SCSC(C)(C)c1ccc(Cl)c(Cl)c1` [Example 11, S-(3,4-Dichloro-α,α-dimethylbenzylthio)methyl O,O-Dimethyl Phosphorodithioate], the mortality at 1120.85 g/ha was 100%.
For `COP(=O)(SC)SCSC(C)(C)c1ccc(Cl)cc1` (stereo not drawn) [Example 16, S-(p-Chloro-α,α-dimethylbenzylthio)methyl O-Methyl S-Methyl Phosphorodithioate], the mortality at 1120.85 g/ha amounted to 0%.
For `COP(=S)(OC)SCSC(C)(C)c1cc(Cl)ccc1Cl` [Example 25, S-(2,5-Dichloro-α,α-dimethylbenzylthio)methyl O,O-Dimethyl Phosphorodithioate], the mortality at 1120.85 g/ha was determined as 0%.
Take `COP(=S)(OC)SCSC(C)(C)c1ccc(Br)cc1` [Example 13, S-(p-Bromo-α,α-dimethylbenzylthio)methyl O,O-Dimethyl Phosphordithioate]: the mortality at 1120.85 g/ha was found to be 90%.

Staying with this data set, now noted: 144 h, 10 lbs./Acre, potting soil, mortality after 6 days, read-out: Percent Control of Southern Corn Rootworm Larvae.
Consider `COP(=S)(OC)SCSC(C)(C)c1ccc(Cl)cc1` [Example 7, S-(p-Chloro-α,α-dimethylbenzylthio)methyl O,O-Dimethyl Phosphorodithioate], for which the mortality at 11208.5 g/ha amounted to 100%.
`COP(=S)(OC)SCSC(C)(C)c1ccc(Cl)c(Cl)c1` [Example 11, S-(3,4-Dichloro-α,α-dimethylbenzylthio)methyl O,O-Dimethyl Phosphorodithioate]: the mortality at 11208.5 g/ha came out at 100%.
Still for that read-out and setting: to `COP(=O)(SC)SCSC(C)(C)c1ccc(Cl)cc1` (stereo not drawn) [Example 16, S-(p-Chloro-α,α-dimethylbenzylthio)methyl O-Methyl S-Methyl Phosphorodithioate] belongs 100%; to `COP(=S)(OC)SCSC(C)(C)c1cc(Cl)ccc1Cl` [Example 25, S-(2,5-Dichloro-α,α-dimethylbenzylthio)methyl O,O-Dimethyl Phosphorodithioate], 100%.
For `COP(=S)(OC)SCSC(C)(C)c1ccc(Br)cc1` [Example 13, S-(p-Bromo-α,α-dimethylbenzylthio)methyl O,O-Dimethyl Phosphordithioate], the mortality at 11208.5 g/ha amounted to 100%.

Still in this data set, the particulars now being: 144 h, 50 lbs./Acre, potting soil, mortality after 6 days, read-out: Percent Control of Southern Corn Rootworm Larvae.
Take `COP(=S)(OC)SCSC(C)(C)c1ccc(Cl)cc1` [Example 7, S-(p-Chloro-α,α-dimethylbenzylthio)methyl O,O-Dimethyl Phosphorodithioate]: the mortality at 56042.5 g/ha was 100%.
As for `COP(=S)(OC)SCSC(C)(C)c1ccc(Cl)c(Cl)c1` [Example 11, S-(3,4-Dichloro-α,α-dimethylbenzylthio)methyl O,O-Dimethyl Phosphorodithioate], the mortality at 56042.5 g/ha came out at 100%.
On to `COP(=O)(SC)SCSC(C)(C)c1ccc(Cl)cc1` (stereo not drawn) [Example 16, S-(p-Chloro-α,α-dimethylbenzylthio)methyl O-Methyl S-Methyl Phosphorodithioate], for which the mortality at 56042.5 g/ha was 100%.
On the same count and under the same terms, in the case of `COP(=S)(OC)SCSC(C)(C)c1cc(Cl)ccc1Cl` [Example 25, S-(2,5-Dichloro-α,α-dimethylbenzylthio)methyl O,O-Dimethyl Phosphorodithioate] it was 100%; in that of `COP(=S)(OC)SCSC(C)(C)c1ccc(Br)cc1` [Example 13, S-(p-Bromo-α,α-dimethylbenzylthio)methyl O,O-Dimethyl Phosphordithioate], 100%.

Test system in another data set: not listed separately
Kind of data set: Mammalian Toxicity Studies (LD50 for Rats). Also on record: species or system male albino rats (Carworth Farms Nelson strain). The note with it: rat, in vivo; 14-day observation; corn oil. The method, then: (§1) Twenty male albino rats or mice of the Carworth Farms Nelson strain (CFI strain for mice)(or other suitable strain) weighing approximately 90 to 120 grams (18-20g. for mice) are selected. Basically, these animals are fasted 24 hours before dosing. Mice are not fasted.
(§2) For materials which are soluble or easily dispersed in an aqueous medium, a 20% solution or suspension is prepared in an aqueous solution of 0.2% agar and 0.1% "Tween" 80. The same series of dosages (grams or milliliters of material per kilogram of animal body weight) are used for all materials in this test. If no previous information is available on the compound or its analogs, a maximum dosage of 10 g/kg is selected to differ by a geometric factor of 2 from the preceding dose, i.e., 10, 5, 2.5, 1.25 g/kg. A sufficient number of dosages are given so as to bracket a 50% response. The animals are observed for several hours after dosing and daily over a 14-day observation period. At the end of this period the survivors are sacrificed, weighed and subjected to a gross autopsy. The results are tabulated and the LD50 is calculated by the method of moving averages using the tables constructed by Weil. [Weil, C. S., Biometrics, 8: (3), 249-263, 1952].
(§3) Samples received as liquids may be administered undiluted or as suspensions in aqueous Agar-Tween, depending on the viscosity of the material. If the material is believed to be relatively non-toxic, an initial maximum dosage of 10 ml/kg is selected and subsequent dosages are selected based upon the severity of gross signs of toxicity.
(§4) For organic phosphate anticholinesterase insecticides, the procedure is modified somewhat. The phosphates are readied for administration by preparing a solution or dispersion in corn oil (Mazola), the concentration of which is adjusted so that the total volume of the dose is 20 ml/kg ([…]) in every case. The initial solution is prepared by deciding upon the maximum dosage in mg/kg to be administered and preparing 50 ml. (10 in mouse test) of this solution of such a concentration that the desired dosage in mg/kg is delivered when 2 ml. (0.5 ml. in mouse test) of the solution is administered for 100 g (20 g in mouse) of rat body weight. Serial dilutions differing by a factor of two are then prepared for each lower dosage level.
In turn, `COP(=S)(OC)SCSC(C)(C)c1ccc(Cl)cc1` [Example 7, S-(p-Chloro-α,α-dimethylbenzylthio)methyl O,O-Dimethyl Phosphorodithioate] came in with an LD50 at 336 h of 230 mg/kg.
Take `COP(=S)(OC)SCSC(C)(C)c1ccc(Cl)c(Cl)c1` [Example 11, S-(3,4-Dichloro-α,α-dimethylbenzylthio)methyl O,O-Dimethyl Phosphorodithioate]: the LD50 at 336 h is above 200 mg/kg.
In the case of `CCOP(=S)(OCC)SCSC(C)(C)c1ccc(Cl)c(Cl)c1` [Example 8, S-(3,4-Dichloro-α,α-dimethylbenzylthio)methyl O,O-Diethyl Phophorodithioate], the 50% lethal dose (LD50) at 336 h is 100 mg/kg.
`CCOP(=S)(OCC)SCSCC` [reference compound] yielded an LD50 at 336 h of 1 to 5 mg/kg.
With `COP(=S)(OC)SCSC(C)(C)c1cc(Cl)ccc1Cl` [Example 25, S-(2,5-Dichloro-α,α-dimethylbenzylthio)methyl O,O-Dimethyl Phosphorodithioate], the LD50 at 336 h came out at 800 mg/kg.
`COP(=S)(OC)SCSC(C)(C)c1ccc(Br)cc1` [Example 13, S-(p-Bromo-α,α-dimethylbenzylthio)methyl O,O-Dimethyl Phosphordithioate]: the LD50 at 336 h turned out to be 280 mg/kg. Compared with the last compound, the LD50 at 336 h is about 2.9-fold lower.

The subject of a further data set is Mites. Kind of data set: Cut-Stem Systemic Test (Mites). Format: in vivo. The note with it: 100 ppm. emulsion, 3 days. The method, then:
(§5) The compound to be tested is formulated as an emulsion containing 0.1 gram of test material, 0.2 gram of Alrodyne 315 emulsifier, 10 ml. of acetone and 90 ml. of water. This is diluted tenfold with water to give a 100 ppm. emulsion for the initial test. A sieva lima bean plant with only the primary leaves unfolded is cut off just above soil level and inserted into a 2-ounce bottle of 100 ppm. emulsion and held in place by a bit of cotton wrapped around the stem. The bottle is then placed in a ventilated box with the leaves extending outside the box, such that any possible fumes from the compound will be drawn out the end of the box rather than rising to affect the test leaves. After holding 3 days at 80° F. and 60% R.H., one leaf from each plant is placed on a moist filter paper in the bottom of a petri dish. Ten third-instar Southern armyworm larvae are then added to each dish and mortality counts made after holding another 3 days at 80° F. and 60% R.H.
The same procedure described above is employed in the mite systemic evaluation excepting that the sieva lima bean leaves are infested with mites, both adult and nymphs, while the leaves are in the ventilated box. After 3 days the leaves are removed and examined under a microscope to determine percent mortality. Data obtained are reported in the Table IV below where it can be seen that the compounds of the present invention are systemically effective insecticidal agents.
For the compound `COP(=S)(OC)SCSC(C)(C)c1ccc(Cl)cc1` [Example 7, S-(p-Chloro-α,α-dimethylbenzylthio)methyl O,O-Dimethyl Phosphorodithioate], the “% Mortality, Mites (Systemic Insecticidal Activity)” value (“% Mortality, Mites” for short) came to 100%.
On to `COP(=S)(OC)SCSC(C)(C)c1ccc(Cl)c(Cl)c1` [Example 11, S-(3,4-Dichloro-α,α-dimethylbenzylthio)methyl O,O-Dimethyl Phosphorodithioate], for which the “% Mortality, Mites” value turned out to be 30%.
Take `CCOP(=S)(OCC)SCSC(C)(C)c1ccc(Cl)c(Cl)c1` [Example 8, S-(3,4-Dichloro-α,α-dimethylbenzylthio)methyl O,O-Diethyl Phophorodithioate]: the “% Mortality, Mites” value worked out at 100%.
As for `COP(=O)(SC)SCSC(C)(C)c1ccc(Cl)cc1` (stereo not drawn) [Example 16, S-(p-Chloro-α,α-dimethylbenzylthio)methyl O-Methyl S-Methyl Phosphorodithioate], the “% Mortality, Mites” value amounted to 30%.
Consider `COP(=S)(OC)SCSC(C)(C)c1ccc(Br)cc1` [Example 13, S-(p-Bromo-α,α-dimethylbenzylthio)methyl O,O-Dimethyl Phosphordithioate], for which the “% Mortality, Mites” value turned out to be 100%.

Test system in the next data set: not listed separately
The data set can be described thus: Mammalian Toxicity Studies (LD50 for Mice). Also on record: species or system mice (Carworth Farms Nelson, CFI strain). To be noted: mouse, in vivo; 14-day observation; corn oil. The method, then:
as §1, §2, §3, §4
Compound `CCOP(=S)(OCC)SCSCC` [reference compound] yielded an LD50 at 336 h of 5.6 mg/kg.

Another data set relates to Southern armyworm larvae. Kind of data set: Cut-Stem Systemic Test (Southern Armyworm). The data set is classed as in vivo. The note with it: Spodoptera eridania, 72 h; cut-stem, 100 ppm. emulsion; larvae held 3 days; read-out: % Mortality, Southern Armyworms (Systemic Insecticidal Activity). The method, then: as §5
On to `COP(=S)(OC)SCSC(C)(C)c1ccc(Cl)cc1` [Example 7, S-(p-Chloro-α,α-dimethylbenzylthio)methyl O,O-Dimethyl Phosphorodithioate], for which the mortality at 100 µg/mL turned out to be 100%.
`COP(=S)(OC)SCSC(C)(C)c1ccc(Cl)c(Cl)c1` [Example 11, S-(3,4-Dichloro-α,α-dimethylbenzylthio)methyl O,O-Dimethyl Phosphorodithioate]: the mortality at 100 µg/mL amounted to 90%.
Consider `CCOP(=S)(OCC)SCSC(C)(C)c1ccc(Cl)c(Cl)c1` [Example 8, S-(3,4-Dichloro-α,α-dimethylbenzylthio)methyl O,O-Diethyl Phophorodithioate], for which the mortality at 100 µg/mL amounted to 100%.
On the same count and under the same terms, to `COP(=O)(SC)SCSC(C)(C)c1ccc(Cl)cc1` (stereo not drawn) [Example 16, S-(p-Chloro-α,α-dimethylbenzylthio)methyl O-Methyl S-Methyl Phosphorodithioate] belongs 0%; to `COP(=S)(OC)SCSC(C)(C)c1ccc(Br)cc1` [Example 13, S-(p-Bromo-α,α-dimethylbenzylthio)methyl O,O-Dimethyl Phosphordithioate], 100%.
